Assay results: PubChem BioAssay (NCI)
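48-hour exposure; five concentrations; linearly interpolated endpoints. Abbreviation: GI50, concentration required for 50% inhibition of growth. TGI: concentration producing complete growth inhibition.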

Columns and labels:
Assay in all cases: inhibition of tumour cell growth, NCI panel, 48 h
[1] = system: RPMI-8226 leukemia
[2] = system: SNB-75 CNS
[3] = system: SF-268 CNS
[4] = system: MDA-MB-231 breast
[5] = system: HS 578T breast
[6] = system: OVCAR-8 ovarian
[7] = system: CCRF-CEM leukemia
[8] = system: OVCAR-3 ovarian
[9] = system: RXF 393 renal
[10] = system: ACHN renal
[11] = system: NCI-H522 lung
[12] = system: SW-620 colon
[13] = system: TK-10 renal
[14] = system: T-47D breast
[15] = system: HCC-2998 colon
[16] = system: NCI-H23 lung
[17] = system: MALME-3M melanoma
[18] = system: NCI-H460 lung
[19] = system: SR leukemia
[20] = system: A498 renal
[21] = system: SK-MEL-5 melanoma
[22] = system: SK-MEL-2 melanoma
[23] = system: IGROV1 ovarian
[24] = system: SF-295 CNS
[25] = system: SK-OV-3 ovarian
[26] = system: 786-0 renal
[27] = system: BT-549 breast
[28] = system: U251 CNS
[29] = system: M14 melanoma
[30] = system: KM12 colon
[31] = system: UACC-62 melanoma
[32] = system: OVCAR-5 ovarian
[33] = system: UACC-257 melanoma
[34] = system: HCT-15 colon
[35] = system: SNB-19 CNS
[36] = system: UO-31 renal
[37] = system: LOX IMVI melanoma
[38] = system: EKVX NSCLC
[39] = system: HOP-62 NSCLC
[40] = system: COLO 205 colon
[41] = system: MCF7 breast
[42] = system: MDA-MB-468 breast
[43] = system: OVCAR-4 ovarian
[44] = system: HL-60(TB) leukemia
[45] = system: CAKI-1 renal
[46] = system: MOLT-4 leukemia
[47] = system: SN12C renal
[48] = system: HCT-116 colon
[49] = system: SK-MEL-28 melanoma
[50] = system: MDA-MB-435
[51] = system: NCI/ADR-RES ovarian
[52] = system: DU-145 prostate
[53] = system: NCI-H226 lung
[54] = system: A549 NSCLC
[55] = system: HT29 colon
[56] = system: PC-3 prostate
[57] = system: K-562 leukemia
[58] = system: HOP-92 NSCLC
[59] = system: SF-539 CNS

COc1ccc(CN2[C@H](C(=O)NCCCCCCC(=O)NO)Cc3c([nH]c4ccccc34)[C@H]2C2CC2)cc1
GI50 [1]: 1870 nM
TGI [1]: > 20000 nM
GI50 [2]: 397 nM
TGI [2]: > 5950 nM
GI50 [3]: 2870 nM
TGI [3]: > 13700 nM
GI50 [4]: 1410 nM
TGI [4]: 4200 nM
GI50 [5]: 1650 nM
TGI [5]: 10700 nM
GI50 [6]: 1950 nM
TGI [6]: > 10200 nM
GI50 [7]: 1250 nM
TGI [7]: > 20000 nM
GI50 [8]: 1890 nM
TGI [8]: 8380 nM
GI50 [9]: 898 nM
TGI [9]: 2450 nM
GI50 [10]: 1720 nM
TGI [10]: 6110 nM
GI50 [11]: 1330 nM
TGI [11]: 5210 nM
GI50 [12]: 1150 nM
TGI [12]: 3530 nM
GI50 [13]: 1390 nM
TGI [13]: 7360 nM
GI50 [14]: 1520 nM
TGI [14]: 4710 nM
GI50 [15]: 1610 nM
TGI [15]: 4550 nM
GI50 [16]: 1880 nM
TGI [16]: 8190 nM
GI50 [17]: 946 nM
TGI [17]: 3840 nM
GI50 [18]: 1780 nM
TGI [18]: > 20000 nM
GI50 [19]: 1120 nM
TGI [19]: > 20000 nM
GI50 [20]: 1130 nM
TGI [20]: 4200 nM
GI50 [21]: 1250 nM
TGI [21]: 2970 nM
GI50 [22]: 998 nM
TGI [22]: 18100 nM
GI50 [23]: 1410 nM
TGI [23]: 4690 nM
GI50 [24]: 1420 nM
TGI [24]: 4330 nM
GI50 [25]: 1170 nM
TGI [25]: 3280 nM
GI50 [26]: 3390 nM
TGI [26]: > 20000 nM
GI50 [27]: 5340 nM
TGI [27]: > 19100 nM
GI50 [28]: 1810 nM
TGI [28]: 7260 nM
GI50 [29]: 2020 nM
TGI [29]: > 20000 nM
GI50 [30]: 2140 nM
TGI [30]: > 14200 nM
GI50 [31]: 1010 nM
TGI [31]: 2560 nM
GI50 [32]: 1090 nM
TGI [32]: 3180 nM
GI50 [33]: 1760 nM
TGI [33]: > 9720 nM
GI50 [34]: 4340 nM
TGI [34]: > 16500 nM
GI50 [35]: 2110 nM
TGI [35]: 12500 nM
GI50 [36]: 2280 nM
TGI [36]: 9500 nM
GI50 [37]: 1310 nM
TGI [37]: 3590 nM
GI50 [38]: 2250 nM
TGI [38]: > 20000 nM
GI50 [39]: 2160 nM
TGI [39]: > 10600 nM
GI50 [40]: 1630 nM
TGI [40]: 4870 nM
GI50 [41]: 1800 nM
TGI [41]: > 16100 nM
GI50 [42]: 1020 nM
TGI [42]: > 5340 nM
GI50 [43]: 5240 nM
TGI [43]: > 20000 nM
GI50 [44]: 2120 nM
TGI [44]: > 20000 nM
GI50 [45]: 1480 nM
TGI [45]: 7560 nM
GI50 [46]: 1960 nM
TGI [46]: > 20000 nM
GI50 [47]: 2190 nM
TGI [47]: 8580 nM
GI50 [48]: 1160 nM
TGI [48]: > 13300 nM
GI50 [49]: 1660 nM
TGI [49]: 6850 nM
GI50 [50]: 1160 nM
TGI [50]: 3490 nM
GI50 [51]: 5420 nM
TGI [51]: > 20000 nM
GI50 [52]: 2120 nM
TGI [52]: > 20000 nM
GI50 [53]: 2900 nM
TGI [53]: > 16500 nM
GI50 [54]: 2150 nM
TGI [54]: > 13000 nM
GI50 [55]: 1350 nM
TGI [55]: 10600 nM
GI50 [56]: 1880 nM
TGI [56]: > 20000 nM
GI50 [57]: 1860 nM
TGI [57]: > 20000 nM
GI50 [58]: 1290 nM
TGI [58]: 4380 nM
GI50 [59]: 1820 nM
TGI [59]: 8740 nM
